The values below are quoted from earlier work in patent US20250179582A1, “METHODS FOR TREATING CANCER PATIENTS WITH HOMOLOGOUS RECOMBINATION DEFICIENCY BASED ON TEMPLATED INSERTIONS” (Memorial Sloan-Kettering Cancer Center, priority 2022, published 2025).

Where two headings read alike, the source gives them in different places.

This data set relates to relapsed high-grade serous ovarian/endometrioid/primary peritoneal/or fallopian carcinoma. To be noted: rucaparib versus placebo.

Take `CNCc1ccc(-c2[nH]c3cc(F)cc4c3c2CCNC4=O)cc1` [rucaparib]: the “progression-free survival hazard ratio (HR)” value reads like this: (germline or somatic mutated BRCA1/2 cohort, patients with at least a partial response to platinum therapy) 0.23; (patients with high genomic LOH) 0.44; (patients with low genomic LOH) 0.58.
